# “Also recorded” adds a separate entry of the source. Like-named read-outs stand apart in the source and are kept apart here. Ends that are not written are not given here.
# What was measured:
# [1] = test system: porcine aortic endothelial cells; conditions: cited from earlier work
# [2] = test system: motility, stereotypy and learning of conditioned avoidance responses; conditions: injected in the lateral cerebral ventricle, rats; cited from earlier work
# [3] = test system: neurons in the paraventricular nucleus; conditions: cited from earlier work
# water intake = conditions: injected into the anterior diencephalons in the rat; cited from earlier work
# rat mesangial cells = conditions: through the AT1 receptor; cited from earlier work
# human astrocytes = conditions: cited from earlier work
# [4] = in contrast to AII; cited from earlier work
# [5] = test system: porcine vascular smooth muscle cells; conditions: cited from earlier work
# [6] = test system: rat isolated nodose ganglion; conditions: cited from earlier work
# blood pressure [7] = conditions: cited from earlier work
# blood pressure [8] = conditions: in vivo; cited from earlier work
# [9] = test system: porcine coronary artery rings; conditions: perhaps through nitric oxide; cited from earlier work
# [10] = test system: rat glomerulus preparations; conditions: through the AT1 receptor; cited from earlier work
# wound tissue = conditions: application to wound tissue; cited from earlier work
# [11] = test system: baroreceptor-heart-reflex; conditions: in vivo; cited from earlier work
# rat adrenal medulla = conditions: cited from earlier work
# [12] = test system: full thickness dermal wounds; experiment: Wound closure and granulation tissue in full thickness dermal wounds, carboxymethyl cellulose vehicle (Example 3); format: in vivo, Female Sprague Dawley rats; conditions: tested fragments of AII
# Description: Female Sprague Dawley rats, 175-200 g, were obtained from Simonsen Laboratories, Gilroy, Calif. On the day of surgery, the rats received intramuscular ketamine/rompum anesthesia prior to preparation for surgery. The rats were shaved and scrubbed with betadine. Two 1.5×1.5 cm full thickness dermal wounds were created on the dorsal surface of the rat. Following excision of the skin, the size of the wound was outlined on a glass slide and the medicament was administered ini 100 μl 10% low viscosity carboxymethyl cellulose (Sigma). The test materials were administered in a randomized fashion; all materials were tested at 100 μg/wound. Controls were treated with vehicle only. After administration of the materials, the rats were bandaged and allowed to recover from anesthesia. On days 1-4 after surgery, the rats were treated with an additional 100 μg of peptide formulation. At days 2, 4, 7 and 9, the area of the skin wounds were measured under methoxyflurane anesthesia (commercially available as Metofane from Pittman-Moore, Mundelein, Ill.). The area of the wound was determined by: (1) tracing the wound shape onto graph paper (1×1 mm squares); (2) cutting out the shape; (3) weighing the paper and comparing the weight with a 1.5×1.5 cm paper cutout; and (4) counting the number of squares. In addition, on days 2, 4 and 7, the area of granulation tissue was similarly determined.
# blood pressure [13] = conditions: intracerebroventricular infusion in the rat; concentrations 1000× higher than that of AII that increased blood pressure; cited from earlier work
substance,measurement,setting,value
"AI: a decapeptide called angiotensin I which is converted to angiotensin II (DRVYIHPFHL; Angiotensin-1; UniProt P01019 25-34, looked up)",release of prostaglandin E2 and 12,[1],stimulated
Arg-Val-Tyr-Ile-His (RVYIH; printed: Arg-Val-Tyr-Ile-His) [AII(2-6)],"motility, stereotypy and learning of conditioned avoidance responses (psychotropic activities)",[2],not active
Arg-Val-Tyr-Ile-His-Pro (RVYIHP) [AII(2-7)],excitation of neurons,[3],inactive
Asp-Arg-Val-Tyr (DRVY) [AII(1-4)],effect on water intake,water intake,only a slight effect
Asp-Arg-Val-Tyr-Ile-His-Pro (DRVYIHP) [AII(1-7)],choline production,rat mesangial cells,very weak effects
same,prostaglandin release,human astrocytes,increases
same,excitation of neurons,[3],weaker
same,excitation of neurons,[3]; listed as Ang(1-7),excited
same,aldosterone release,[4],does not cause
same,catecholamine release,[4],does not cause
same,dipsogenic effect,[4],not dipsogenic
same,effect on water intake,water intake,completely inactive
same,prostaglandin release,[5],increases
same,depolarization of nodose ganglion,[6],does not
same,"dose at which pressor effects on blood pressure occur, relative to AII",blood pressure [7]; depending upon the model tested and route of administration,10000-100000 times the dose of AII
same,depressor effect on blood pressure,blood pressure [7]; may be mediated through prostanoid synthesis,depressor effect
same,amount required relative to AII to get a comparable pressor response,blood pressure [8],about 10000 ×
same,depressor effect,blood pressure [8],long depressor effect
same,pressor effect,blood pressure [8],weak pressor
same,release of prostaglandin E2 and 12,[1],stimulated
same,dilation of coronary artery rings,[9],dilates
same,"formation of cAMP in response to histamine, serotonin and parathyroid hormone",[10],did not have this effect
Asp-Arg-Val-Tyr-Ile-His-Pro-Phe (DRVYIHPF) [AII],choline production,rat mesangial cells,stimulates
same,prostaglandin release,human astrocytes,increases
same,release of intracellular Ca2+,human astrocytes,increases
same,excitation of neurons,[3],excited
same,rate of wound healing,wound tissue,significantly increases
same,prostaglandin release,[5],increases
same,release of intracellular Ca2+,[5],increases
same,depolarization of nodose ganglion,[6],causes depolarization
same,"motility, stereotypy and learning of conditioned avoidance responses (psychotropic activities)",[2],increased
same,sensitivity of the baroreceptor-heart-reflex,[11],enhances
same,release of prostaglandin E2 and 12,[1],did not have this effect
same,dilation of coronary artery rings,[9],not observed
same,evoked neuronal norepinephrine release,rat adrenal medulla,biphasic effect
same,spontaneous neuronal norepinephrine release,rat adrenal medulla,increasing
same,"formation of cAMP in response to histamine, serotonin and parathyroid hormone",[10],inhibited
DRVYIH [AII(1-6)],choline production,rat mesangial cells,very weak effects
same,"motility, stereotypy and learning of conditioned avoidance responses (psychotropic activities)",[2],not active
His-Pro-Phe (HPF) [AII(6-8)],effectiveness in wound healing,[12],not to be effective
Ile-His-Pro-Phe (IHPF) [AII(5-8)],effect on water intake,water intake,only a slight effect
same,effect on blood pressure,blood pressure [13],minimal effect
Try-Ile-His-Pro-Phe (YIHPF) [AII(4-8)],effect on water intake,water intake,only a slight effect
same,effectiveness in wound healing,[12],not to be effective; also recorded: ineffective
same,effect on blood pressure,blood pressure [13],minimal effect
Val-Tyr-Ile-His-Pro (VYIHP) [AII(3-7)],depressor effect,blood pressure [8],no depressor effect
same,pressor effect,blood pressure [8],less of a pressor effect than AII(1-7)
Val-Tyr-Ile-His-Pro-Phe (VYIHPF) [AII(3-8)],dilation of coronary artery rings,[9],not observed

# — patent publication US20050032688A1, “Use of angiotensin II fragments and analogs thereof in tissue repair” (University of Southern California, priority 1993, published 2005)
